# Source: patent publication US8563584B2, “Substituted enaminothiocarbonyl compounds” (Bayer CropScience AG, priority 2008, dated 2013)
# Tests used:
# [1] = system: larvae of the mustard beetle (Phaedon cochleariae); test: Phaedon test (PHAECO spray treatment); format: in vivo; conditions: application rate of 500 g/ha; spray treatment of Chinese cabbage leaf discs
# Method: Phaedon Test ([…] Spray Treatment) Solvents: 78 parts by weight of acetone • • 1.5 parts by weight of dimethylformamide Emulsifier: 0.5 part by weight of alkylaryl polyglycol ether To produce a suitable preparation of active compound, 1 part by weight of active compound is mixed with the stated amounts of solvent and emulsifier, and the concentrate is diluted with emulsifier-containing water to the desired concentration. Discs of Chinese cabbage leaves (Brassica pekinensis) are sprayed with an active compound preparation of the desired concentration and, after drying, populated with larvae of the mustard beetle (Phaedon cochleariae). After the desired period of time, the effect in % is determined 100% means that all beetle larvae have been killed; 0% means that none of the beetle larvae have been killed.
# [2] = system: green peach aphid (Myzus persicae); test: Myzus test (MYZUPE spray treatment); format: in vivo; conditions: application rate of 500 g/ha; spray treatment of infested Chinese cabbage leaf discs, all stages
# Method: Myzus Test (MYZUPE Spray Treatment) Solvents: 78 parts by weight of acetone • • 1.5 parts by weight of dimethylformamide Emulsifier: 0.5 part by weight of alkylaryl polyglycol ether To produce a suitable preparation of active compound, 1 part by weight of active compound is mixed with the stated amounts of solvent and emulsifier, and the concentrate is diluted with emulsifier-containing water to the desired concentration. Discs of Chinese cabbage leaves (Brassica pekinensis) which are infested by all stages of the green peach aphid (Myzus persicae) are sprayed with a preparation of active compound of the desired concentration. After the desired period of time, the effect in % is determined 100% means that all aphids have been killed; 0% means that none of the aphids have been killed.
smiles,measurement,setting,value
"FC(F)CN(Cc1ccc(Cl)nc1)C1=CC(=S)OC1 [Ex. No. 1, 4-{[(6-Chloropyridin-3-yl)methyl](2,2-difluoroethyl)amino}furan-2(5H)-thione]",activity (effect in %; 100% means that all beetle larvae have been killed),[1],≥ 80%
same,activity (effect in %; 100% means that all aphids have been killed),[2],≥ 80%
